The source made the active and inactive calls. The calls are words filed in the database; no cut-off is given here.
Assays:
[1] = Half life in rat liver microsomes by LC/MS/MS analysis; assay type: ADME, Microsome
[2] = target: Cytochrome P450 3A (Homo sapiens, UniProt P08684+P20815+Q9HB55+P24462); assay: Inhibition of CYP3A in human hepatocyte at 5 uM; assay type: ADME, cell-based; conditions: hepatocytes
[3] = tested on: HCT-116; assay: Cytotoxicity against human HCT116 cells after 96 hrs by MTT assay; assay type: functional, cell-based; conditions: HCT-116, 96 h
[4] = Apparent volume of distribution with respect to the bioavailability in Wistar rat at 10 mg/kg, po after 24 hrs by LC/MS/MS analysis; assay type: ADME, organism-based; conditions: in vivo, read-out: Vc/F
[5] = Antitumor activity against mouse P388D1 cells xenografted in BALB/c mouse assessed as increase in life span at 67 mg/kg, po administered BID on days 1-3 and 7-9 after tumor implantation relative to control
[6] = Fraction unbound in rat plasma by equilibrium dialysis; assay type: ADME, cell-free
[7] = tested on: A2780; assay: Cytotoxicity against human A2780 cells after 96 hrs by MTT assay; assay type: functional, cell-based; conditions: A2780, 96 h
[8] = tested on: A549; assay: Cell cycle arrest in asynchronous human A549 cells assessed as accumulation of cyclin B1-negative tetraploid cells at G1 phase at 0.5 to 2 uM after 24 hrs by FACS analysis; assay type: functional, cell-based
[9] = tested on: HeLa; assay: Inhibition of Aurora kinase in human HeLa cells assessed as complete inhibition of histone H3 phosphorylation at 1.25 uM after 7 hrs by Western blot analysis; assay type: cell-based
[10] = tested on: BXPC-3; assay: Cytotoxicity against human BxPC3 cells after 96 hrs by MTT assay; assay type: functional, cell-based; conditions: BXPC-3, 96 h
[11] = Cytotoxicity against human MESSA cells after 96 hrs by MTT assay; assay type: functional, cell-based; conditions: MES-SA
[12] = target: Cytochrome P450 3A4 (Homo sapiens, UniProt P08684); assay: Inhibition of human recombinant CYP3A4 at 5 uM; assay type: ADME; conditions: recombinant enzyme
[13] = tested on: HL-60; assay: Cytotoxicity against human HL60 cells after 96 hrs by MTT assay; assay type: functional, cell-based; conditions: HL-60, 96 h
[14] = tested on: MIA PaCa-2; assay: Cytotoxicity against human MIAPaCa2 cells after 96 hrs by MTT assay; assay type: functional, cell-based; conditions: MIA PaCa-2, 96 h
[15] = Oral bioavailability in Wistar rat at 10 mg/kg after 24 hrs by LC/MS/MS analysis; assay type: ADME, organism-based; conditions: in vivo
[16] = tested on: U2OS; assay: Inhibition of Aurora kinase in nocodazole-synchronized human U2OS cells assessed as reduction of histone H3 serine-10 phosphorylation at 0.07 to 10 uM after 2 hrs immunofluorescence microscopy; assay type: cell-based
[17] = AUC (0 to 24 hrs) in Wistar rat at 10 mg/kg, po after 24 hrs by LC/MS/MS analysis; assay type: ADME, organism-based; set-up: time < 24 hr, dose 10 mg/kg, route oral; conditions: plasma
[18] = Elimination half life in Wistar rat at 10 mg/kg, po by LC/MS/MS analysis; assay type: ADME, organism-based; set-up: dose 10 mg/kg, route oral; conditions: in vivo, read-out: beta t1/2 (converted)
[19] = tested on: Mus musculus; assay: Toxicity in athymic mouse xenografted with human NCI-H460 cells assessed as body weight loss at 100 mg/kg, po administered QD on day 1 after implantation for 5 days measured on day 13; assay type: organism-based; set-up: dose 100 mg/kg, route oral; conditions: in vivo, 120 h
[20] = tested on: SW-620; assay: Effect on mitotic index in human SW620 cells assessed as appearance of polyploid cells at 1 uM after 48 hrs by propidium iodide staining-based FACS analysis; assay type: functional, cell-based
[21] = tested on: NCI-H460; assay: Antitumor activity against human NCI-H460 cells xenografted in athymic mouse assessed as reduction in mean tumor volume at 100 mg/kg, po administered QD on day 1 after implantation for 5 days measured on day 6 relative to control; assay type: functional; set-up: scale not given: the % may be the effect or the level left
[22] = tested on: SW-620; assay: Induction of apoptosis in human SW620 cells assessed as late apoptotic cells at 1 uM after 24 hrs by TUNEL assay; assay type: functional
[23] = target: Voltage-gated inwardly rectifying potassium channel KCNH2 (Homo sapiens, UniProt Q12809); assay: Inhibition of human ERG expressed in CHO cells up to 50 uM by patch-clamp electrophysiology; assay type: cell-based
[24] = tested on: MV4-11; assay: Cytotoxicity against human MV4-11 cells after 96 hrs by MTT assay; assay type: functional, cell-based; conditions: MV4-11, 96 h
[25] = Inhibition of CK2

Voltage-gated inwardly rectifying potassium channel KCNH2, sequence (Q12809 whole entry): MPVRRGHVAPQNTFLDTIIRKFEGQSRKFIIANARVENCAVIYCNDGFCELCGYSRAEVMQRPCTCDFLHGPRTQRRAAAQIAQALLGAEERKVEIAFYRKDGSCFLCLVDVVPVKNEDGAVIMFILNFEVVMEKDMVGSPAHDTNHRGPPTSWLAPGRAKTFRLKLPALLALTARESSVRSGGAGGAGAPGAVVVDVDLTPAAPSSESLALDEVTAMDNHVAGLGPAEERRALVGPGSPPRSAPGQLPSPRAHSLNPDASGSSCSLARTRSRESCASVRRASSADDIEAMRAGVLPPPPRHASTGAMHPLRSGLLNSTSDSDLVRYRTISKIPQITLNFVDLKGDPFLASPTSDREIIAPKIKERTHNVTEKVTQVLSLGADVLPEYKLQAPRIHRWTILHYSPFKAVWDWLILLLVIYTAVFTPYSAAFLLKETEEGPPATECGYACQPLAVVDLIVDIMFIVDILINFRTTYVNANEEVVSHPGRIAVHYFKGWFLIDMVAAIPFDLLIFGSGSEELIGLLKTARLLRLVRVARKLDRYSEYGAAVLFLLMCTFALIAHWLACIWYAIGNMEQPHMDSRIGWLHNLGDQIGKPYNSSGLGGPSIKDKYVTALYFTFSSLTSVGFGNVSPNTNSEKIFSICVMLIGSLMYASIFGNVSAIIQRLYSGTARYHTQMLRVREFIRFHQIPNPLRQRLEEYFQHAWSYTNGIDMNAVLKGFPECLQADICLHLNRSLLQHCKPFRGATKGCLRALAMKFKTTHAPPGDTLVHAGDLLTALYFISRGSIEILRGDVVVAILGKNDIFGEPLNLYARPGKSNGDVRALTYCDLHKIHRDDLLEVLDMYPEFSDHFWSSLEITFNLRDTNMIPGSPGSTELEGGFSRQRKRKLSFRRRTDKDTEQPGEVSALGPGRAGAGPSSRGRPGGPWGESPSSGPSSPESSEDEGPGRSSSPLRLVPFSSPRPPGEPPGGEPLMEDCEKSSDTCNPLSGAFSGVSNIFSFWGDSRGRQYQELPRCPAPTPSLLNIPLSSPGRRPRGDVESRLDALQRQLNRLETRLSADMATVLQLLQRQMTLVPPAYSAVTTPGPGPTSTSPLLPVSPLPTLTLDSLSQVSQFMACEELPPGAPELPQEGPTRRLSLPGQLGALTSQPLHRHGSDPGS
Cytochrome P450 3A4, sequence (P08684 whole entry): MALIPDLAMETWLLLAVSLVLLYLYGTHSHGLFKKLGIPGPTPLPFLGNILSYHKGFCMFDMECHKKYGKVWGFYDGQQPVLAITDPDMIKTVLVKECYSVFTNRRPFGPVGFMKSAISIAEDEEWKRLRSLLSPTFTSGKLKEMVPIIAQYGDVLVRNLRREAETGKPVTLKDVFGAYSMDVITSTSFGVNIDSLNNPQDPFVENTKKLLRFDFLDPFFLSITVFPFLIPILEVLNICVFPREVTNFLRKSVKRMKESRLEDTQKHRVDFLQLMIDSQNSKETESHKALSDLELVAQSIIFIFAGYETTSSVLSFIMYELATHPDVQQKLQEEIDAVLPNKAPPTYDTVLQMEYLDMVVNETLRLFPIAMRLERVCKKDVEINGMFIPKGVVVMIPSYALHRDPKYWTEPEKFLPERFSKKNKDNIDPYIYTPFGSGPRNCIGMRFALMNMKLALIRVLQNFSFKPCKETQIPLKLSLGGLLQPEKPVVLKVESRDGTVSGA

Structure (SMILES): Cc1nc(N)sc1-c1ccnc(Nc2ccc(N3CCOCC3)cc2)n1 [CYC-116]
- half-life [1]: 0.547 h
- inhibition (INH) [2]: Active
- IC50 [3]: 0.34 µM
- Vd/F [4]: 8.5 L/kg
- Activity [5]: 183%
- fraction unbound [6]: 0.93
- IC50 [7]: 0.17 µM
- Activity [8]: Active
- inhibition [9]: Active
- IC50 [10]: 1.63 µM
- IC50 [11]: 0.09 µM
- inhibition (INH) [12]: Active
- IC50 [13]: 0.372 µM
- IC50 [14]: 0.278 µM
- bioavailability [15]: 38%
- inhibition [16]: Active
- AUC(0-t) at 24 h [17]: 13.6 µM·h
- half-life [18]: 3 h
- Activity [19]: Non-toxic
- Activity [20]: Active
- Activity [21]: 40%
- Activity [22]: 9.3%
- inhibition (INH) [23]: Not Active
- IC50 [24]: 0.034 µM
- Ki [25]: > 10 µM
